From ChEMBL document CHEMBL4651402, “Screening of ~5500 FDA-approved drugs and clinical candidates for anti-SARS-CoV-2 activity” (2021)

Test system: SARS-CoV-2
Assay: microbe, parasite or virus in culture
Conditions: Severe acute respiratory syndrome coronavirus 2, Vero C1008, 48 h

Row | SMILES | IC50 | IC50 (read-out: pIC50 (converted))
1 | NC(=O)[C@@H](CCC(F)(F)F)N(Cc1ccc(-c2ncon2)cc1F)S(=O)(=O)c1ccc(Cl)cc1 | > 20 µM | > 20 µM
2 | N#Cc1ccccc1-c1cc(-c2ccccn2)cn(-c2ccccc2)c1=O | > 20 µM | > 20 µM
3 | C[C@@H]1O[C@@H](O[C@@H]2C=C3CCC4C(CC[C@]5(C)[C@@H](c6ccc(=O)oc6)CC[C@]45O)[C@@]3(C)CC2)[C@H](O)[C@H](O)[C@H]1O (stereo partly drawn) | > 20 µM | > 20 µM
4 | CCCCCCCCCCCCCCCC(=O)OCC(NC(=O)C(Cl)Cl)C(O)c1ccc([N+](=O)[O-])cc1 (stereo not drawn) | > 20 µM | > 20 µM
5 | CC(C)(C)c1cc2c(cc1Cl)C=C(C(=O)O)C(C(F)(F)F)O2 (stereo not drawn) | > 20 µM | > 20 µM
6 | NCCCN | > 20 µM | > 20 µM
7 | O=c1oc2cc(O)ccc2c2ccc(O)cc12 | > 20 µM | > 20 µM
8 | NC(=O)NC(CCC(=O)O)C(=O)O (stereo not drawn) | > 20 µM | > 20 µM
9 | COc1ccc(C(=O)OC2C[C@H]3CC[C@H](C2)N3C)cc1OC (stereo partly drawn) | > 20 µM | > 20 µM
10 | Nc1nc(O)c2c(n1)NCC(CNc1ccc(C(=O)N[C@@H](CCC(=O)O)C(=O)O)cc1)N2 (stereo partly drawn) | > 20 µM | > 20 µM
11 | CCCCCCCC(=O)N[C@H](CN1CCCC1)[C@H](O)c1ccc2c(c1)OCCO2 | > 20 µM | > 20 µM
12 | C=C(C)[C@@H]1[C@H]2OC(=O)[C@H]1[C@]1(O)C[C@H]3O[C@]34C(=O)O[C@H]2[C@]14C | > 20 µM | > 20 µM
13 | CCNC(=O)C[C@H]1N=C(c2ccc(Cl)cc2)c2cc(OC)ccc2-n2c(C)nnc21 | > 20 µM | > 20 µM
14 | c1ccc2c3c([nH]c2c1)[C@H]1[C@H]2CC[C@H]([C@@H]4CCCN[C@@H]42)N1CC3 | > 20 µM | > 20 µM
15 | CCC[C@H](NC(=O)[C@@H]1[C@H]2CCC[C@H]2CN1C(=O)[C@@H](NC(=O)[C@@H](NC(=O)c1cnccn1)C1CCCCC1)C(C)(C)C)C(=O)C(=O)NC1CC1 | > 20 µM | > 20 µM
16 | CC(C)(C)C#Cc1cc(N(C(=O)[C@H]2CC[C@H](C)CC2)[C@H]2CC[C@@H](O)CC2)c(C(=O)O)s1 | > 20 µM | > 20 µM
17 | Cc1nnc(C(=O)NC(C)(C)c2nc(C(=O)NCc3ccc(F)cc3)c(O)c(=O)n2C)o1 | > 20 µM | > 20 µM
18 | COC(=O)CCC(C)C1CCC2C3CC[C@@H]4C[C@H](O)CC[C@]4(C)C3C[C@H](O)[C@]12C (stereo partly drawn) | > 20 µM | > 20 µM
19 | CC(=O)N(O)C/C=C/c1cccc(Oc2ccccc2)c1 | > 20 µM | > 20 µM
20 | c1ccc2c(c1)CN1CCCC1=N2 | > 20 µM | > 20 µM
21 | NC(=O)C1CC2(NC(=O)NC2=O)c2cc(F)ccc2O1 (stereo not drawn) | > 20 µM | > 20 µM
22 | C=C(NC(=O)C(=C)NC(=O)c1csc(C2=N[C@H]3c4csc(n4)[C@H]4NC(=O)c5csc(n5)[C@H]([C@@](C)(O)[C@@H](C)O)NC(=O)[C@H]5CSC(=N5)/C(=C\C)NC(=O)[C@H]([C@@H](C)O)NC(=O)c5csc(n5)[C@]3(CC2)NC(=O)[C@H](C)NC(=O)C(=C)NC(=O)[C@H](C)NC(=O)[C@H](C(C)CC)N[C@@H]2C=Cc3c([C@H](C)O)cc(nc3[C@H]2O)C(=O)O[C@@H]4C)n1)C(N)=O (stereo partly drawn) | > 20 µM | > 20 µM
23 | O=C(O)[C@]1(O)C[C@H](O)[C@@H](O)[C@@H](O)C1 | > 20 µM | > 20 µM
24 | CC(=O)OC1CC2CCC3C(CCC4(C)C3CC(N3CC[N+](C)(C)CC3)C4OC(C)=O)C2(C)CC1N1CC[N+](C)(C)CC1 (stereo not drawn) | > 20 µM | > 20 µM
25 | CNc1ccc(-c2ccc3cc(OC[C@H](O)CF)ccc3n2)cc1 | > 20 µM | > 20 µM

Row | SMILES | IC50 | IC50 (read-out: pIC50 (converted))
26 | [2H]c1c([2H])c(-c2ccc(F)cc2F)c([2H])c(C(=O)O)c1O | > 20 µM | > 20 µM
27 | O=C(O)[C@H]1CCCC[C@]1(O)c1ccccc1 | > 20 µM | > 20 µM
28 | CC#CC(=O)N1CCC[C@@H]1c1nc(-c2ccc(C(=O)Nc3ccccn3)cc2)c2c(N)nccn12 | > 20 µM | > 20 µM
29 | Cn1cc(Nc2nccc(N3CC4CCC(C3)N4C(=O)[C@@H]3CC3(F)F)n2)cn1 | > 20 µM | > 20 µM
30 | COCCOC(=O)C1=C(C)NC(C)=C(C(=O)OCC=Cc2ccccc2)C1c1cccc([N+](=O)[O-])c1 (stereo not drawn) | > 20 µM | > 20 µM
31 | CC(C)NCC(O)c1ccc([N+](=O)O)cc1 (stereo not drawn) | > 20 µM | > 20 µM
32 | C#CCC/C(O)=C(\C#N)C(=O)Nc1ccc(C(F)(F)F)cc1 | > 20 µM | > 20 µM
33 | C[C@]12CC[C@H](O)C[C@@H]1CC[C@@H]1C2CC[C@]2(C)[C@@H](C3=CC(=O)OC3)CC[C@]12O (stereo partly drawn) | > 20 µM | > 20 µM
34 | CCC[N+]12C3C[C@@H]([C@H](CC)[C@H]1O)[C@H]1[C@H](O)[C@]4(C[C@@H]12)c1ccccc1N(C)[C@@H]34 | > 20 µM | > 20 µM
35 | COc1c(N2CCC/C(=C(/F)CN)C2)c(F)cc2c(=O)c(C(=O)O)cn(C3CC3)c12 | > 20 µM | > 20 µM
36 | CC(C)OC(=O)[C@H](C)N[P@](=S)(OC[C@H]1O[C@@H](n2ccc(=O)[nH]c2=O)[C@](C)(O)[C@@H]1O)Oc1ccccc1 | > 20 µM | > 20 µM
37 | CC(CCC(=O)NCCS(=O)(=O)O)C1CCC2C3C[C@H](O)[C@@H]4C[C@H](O)CC[C@]4(C)C3CC[C@]12C (stereo partly drawn) | > 20 µM | > 20 µM
38 | NC(=O)OC[C@H](O)c1ccccc1Cl | > 20 µM | > 20 µM
39 | CC[C@H]1OC(=O)C[C@@H](O)[C@H](C)[C@@H](O[C@@H]2O[C@H](C)[C@@H](O[C@H]3C[C@@](C)(O)[C@@H](O)[C@H](C)O3)[C@H](N(C)C)[C@H]2O)[C@@H](CC=O)C[C@@H](C)C(=O)/C=C\C(C)=C/[C@@H]1CO[C@@H]1O[C@H](C)[C@@H](O)[C@@H](OC)[C@H]1OC | > 20 µM | > 20 µM
40 | CC(C)n1c(/C=C/[C@@H](O)C[C@@H](O)CC(=O)O)c(-c2ccc(F)cc2)c2ccccc21.CC(C)n1c(/C=C/[C@H](O)C[C@H](O)CC(=O)O)c(-c2ccc(F)cc2)c2ccccc21 | > 20 µM | > 20 µM
41 | O=C(OC1C[C@@H]2CC3C[C@@H](C1)N2CC3=O)c1c[nH]c2ccccc12 (stereo partly drawn) | > 20 µM | > 20 µM
42 | CCn1c(=Cc2cccc[n+]2CC)sc(=C2Sc3ccccc3N2C)c1=O | > 20 µM | > 20 µM
43 | CCC1C(=O)Nc2ccc(F)cc2N1C(=O)OC(C)C (stereo not drawn) | > 20 µM | > 20 µM
44 | CC(=C(CCO)SSCC1CCCO1)N(C=O)Cc1cnc(C)nc1N (stereo not drawn) | > 20 µM | > 20 µM
45 | CC[C@@H](C)C(=O)O[C@H]1[C@H](O)[C@H]2[C@@H](CN3C[C@@H](C)CC[C@H]3[C@@]2(C)O)[C@@H]2C[C@]34O[C@@]5(O)[C@@H](OC(=O)[C@](C)(O)CC)CC[C@@]3(C)[C@@H]5[C@@H](OC(C)=O)[C@@H](OC(C)=O)[C@H]4[C@@]21O | > 20 µM | > 20 µM
46 | C[C@@]1(c2nc3cccc(C(N)=O)c3[nH]2)CCCN1 | > 20 µM | > 20 µM
47 | O=C(O)C1(c2ccc3c(c2)OC[C@H](Cc2ccc(-c4ccccc4)cc2)[C@H]3O)CCCC1 | > 20 µM | > 20 µM
48 | CC(=O)N[C@@H](CC(C)C)C(=O)O | > 20 µM | > 20 µM
49 | CNC=O | > 20 µM | > 20 µM
